Laboratory results reported in US9242943B2, “1,4 oxazines as BACE1 and/or BACE2 inhibitors” (SIENA BIOTECH S.P.A., priority 2011, dated 2016).

Columns and labels:
[1] = target: cathepsin D (from human liver) (Homo sapiens (Human), UniProt P07339); assay: Cathepsin D fluorescent substrate kinetic assay (MR121); format: biochemical; details: pH 5.5, substrate WTSVLMAAPC-MR121
From the text: (§1) Cathepsin D and Cathepsin E Fluorescent Substrate Kinetic Assays General Assay Principle
(§2) The MR121 fluorescence assays described below are based on the fact that MR121 forms a non-fluorescent ground state complex with tryptophan. In solution this formation occurs at millimolar concentrations of tryptophan. The mechanism can be used to design a generic biochemical assay for proteases. A substrate peptide is labeled at the N-terminus with tryptophan and at the C-terminus with the fluorophore MR121 (for cathepsin D the 10 amino acid peptide WTSVLMAAPC-MR121 was used; for cathepsin E, MR121-CKLVFFAEDW was used). In absence of protease activity, the substrates remain intact and the MR121 fluorescence is reduced by the high local Trp-concentration. If the substrates are cleaved by the enzymes the MR121 fluorescence is recovered.
(§3) The fluorescent substrate cathepsin D and cathepsin E kinetic assays were performed at room temperature in 384-well microtiter plates (black with clear flat bottom, non binding surface plates from Corning) in a final volume of 51 μl. […] The enzymatic reaction was followed in a plate: vision reader (Perkin Elmer) (excitation wavelength: 630 nm; emission: 695 nm) for at least 30 minutes in a kinetic measurement detecting an increase of MR121 fluorescence during the reaction time. […]

[2] = target: BACE2 (Rattus norvegicus (Rat), UniProt Q6IE75); assay: Assay for BACE inhibition by measuring cellular TMEM27 cleavage (INS-TMEM27 cells, ELISA); format: cell-based; details: INS-TMEM27 (INS1e-derived) cells; shed TMEM27 in supernatant; read-out: BACE2 cell act. IC50
BACE2, sequence (Q6IE75 63-514): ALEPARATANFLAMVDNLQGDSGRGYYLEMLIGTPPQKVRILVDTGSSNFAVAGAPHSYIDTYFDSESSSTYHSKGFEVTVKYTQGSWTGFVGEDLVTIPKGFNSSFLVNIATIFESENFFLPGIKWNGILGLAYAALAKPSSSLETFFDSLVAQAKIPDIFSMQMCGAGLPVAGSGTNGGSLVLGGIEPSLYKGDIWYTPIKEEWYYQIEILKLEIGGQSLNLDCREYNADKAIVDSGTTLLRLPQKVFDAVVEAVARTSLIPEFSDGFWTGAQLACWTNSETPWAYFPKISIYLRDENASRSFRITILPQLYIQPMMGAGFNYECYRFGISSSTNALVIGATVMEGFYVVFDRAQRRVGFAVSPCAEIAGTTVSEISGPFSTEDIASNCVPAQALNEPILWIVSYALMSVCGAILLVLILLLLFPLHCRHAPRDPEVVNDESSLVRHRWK
From the text: Assay for BACE Inhibition by Measuring Cellular TMEM27 Cleavage:
The assay uses the principle of inhibition of human TMEM27 cleavage by endogenous cellular BACE2 in the Ins1e rat cell line and shedding from the cell surface into the culture medium, followed by detection in an ELISA assay. Inhibition of BACE2 prevents the cleavage and shedding in a dose-dependent manner
The stable cell line “INS-TMEM27” represents an INS1e-derived cell line with inducible expression (using the TetOn system) of full-length hTMEM27 in a doxycycline-dependent manner. The cells are cultured throughout the experiment in RPMI1640 +Glutamax (Invitrogen) Penicillin/Streptomycin, 10% Fetal bovine serum, […], […], 100 micrograms/ml G418 and 100 microgram/ml hygromycin and are grown inadherent culture at 37° C. in a standard CO2 cell culture incubator.
INS-TMEM27 cells are seeded in 96-well plates. After 2 days in culture, BACE2 inhibitor is added in a range of concentrations as required by the assay and after a further two hours, doxycycline is added to a final concentration of 500 ng/ml. The cells are incubated for a further 46 hours and the supernatant harvested for detection of shed TMEM27.
An ELISA assay (using a pair of mouse anti-human-TMEM27 antibodies, raised against the extracellular domain of TMEM27) is used for detection of TMEM27 in the culture medium. An EC50 for BACE2 inhibition is calculated using the ELISA readout for each inhibitor concentration with standard curve-fitting software such as XLFit for the Excel spreadsheet program.

[3] = target: BACE1 (Homo sapiens (Human), UniProt P56817); assay: Cellular Aβ-lowering assay (Aβ40 ELISA, HEK293 cells expressing human APP695); format: cell-based; details: HEK293 cells stably transfected with human APP695; 18-20 hrs incubation; Aβ40 in supernatant; read-out: BACE1 cell act. Aβ40 IC50
BACE1, sequence (P56817 46-501): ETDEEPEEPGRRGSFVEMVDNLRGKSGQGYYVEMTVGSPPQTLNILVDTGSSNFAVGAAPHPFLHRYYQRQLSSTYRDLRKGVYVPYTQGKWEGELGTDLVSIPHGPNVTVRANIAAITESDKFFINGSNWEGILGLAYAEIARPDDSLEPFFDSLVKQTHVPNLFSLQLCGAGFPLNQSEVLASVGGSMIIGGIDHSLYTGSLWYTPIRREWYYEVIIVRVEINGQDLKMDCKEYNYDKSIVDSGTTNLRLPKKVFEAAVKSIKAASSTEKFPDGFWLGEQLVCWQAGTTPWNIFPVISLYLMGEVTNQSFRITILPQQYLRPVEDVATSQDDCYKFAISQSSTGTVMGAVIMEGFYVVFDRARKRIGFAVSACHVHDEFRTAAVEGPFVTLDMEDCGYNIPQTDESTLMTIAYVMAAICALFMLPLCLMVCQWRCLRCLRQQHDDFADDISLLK
Method: Cellular Aβ-Lowering Assay:
Human HEK293 cells which are stably transfected with a vector expressing a cDNA of the human APP wt gene (APP695) were used to assess the potency of the compounds in a cellular assay. The cells were seeded in 96-well microtiter plates in cell culture medium (Iscove, plus 10% (v/v) fetal bovine serum, glutamine, penicillin/streptomycin) to about 80% confluence and the compounds were added at a 10× concentration in 1/10 volume of medium without FCS containing 8% DMSO (final concentration of DMSO was kept at 0.8% v/v). After 18-20 hrs incubation at 37° C. and 5% CO2 in a humidified incubator the culture supernatant was harvested for the determination of […] concentrations. 96well ELISA plates (e.g., Nunc MaxiSorb) were coated with monoclonal antibody which specifically recognize the C-terminal end of […] (Brockhaus et al., NeuroReport 9, 1481-1486; 1998). After blocking of non-specific binding sites with e.g. 1% BSA and washing, the culture supernatants were added in suitable dilutions together with a horseradish peroxidase-coupled Aβ detection antibody (e.g., antibody 4G8, Senetek, Maryland Heights, Mo.) and incubated for 5 to 7 hrs. Subsequently the wells of the microtiter plate were washed extensively with Tris-buffered saline containing 0.05% Tween 20 and the assay was developed with tetramethylbenzidine/H2O2 in citric acid buffer. After stopping the reaction with one volume 1 N H2SO4 the reaction was measured in an ELISA reader at 450 nm wavelength. The concentrations of Aβ in the culture supernatants were calculated from a standard curve obtained with known amounts of pure Aβ peptide.

[4] = target: recombinant human cathepsin E (Homo sapiens (Human), UniProt P14091); assay: Cathepsin E fluorescent substrate kinetic assay (MR121); format: biochemical; details: pH 4.5, substrate MR121-CKLVFFAEDW
recombinant human cathepsin E, sequence (P14091 54-396): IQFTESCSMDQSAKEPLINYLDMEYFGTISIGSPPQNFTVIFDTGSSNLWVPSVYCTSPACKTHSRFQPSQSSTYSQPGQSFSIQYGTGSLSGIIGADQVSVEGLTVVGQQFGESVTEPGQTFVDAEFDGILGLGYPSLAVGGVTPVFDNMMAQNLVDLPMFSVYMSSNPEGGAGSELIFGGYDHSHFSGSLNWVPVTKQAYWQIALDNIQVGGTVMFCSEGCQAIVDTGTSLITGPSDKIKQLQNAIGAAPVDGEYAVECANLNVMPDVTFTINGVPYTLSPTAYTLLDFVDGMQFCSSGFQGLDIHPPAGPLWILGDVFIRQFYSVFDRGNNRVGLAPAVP
From the text: as §1, §2, §3

cathepsin D (from human liver), sequence (P07339 169-412): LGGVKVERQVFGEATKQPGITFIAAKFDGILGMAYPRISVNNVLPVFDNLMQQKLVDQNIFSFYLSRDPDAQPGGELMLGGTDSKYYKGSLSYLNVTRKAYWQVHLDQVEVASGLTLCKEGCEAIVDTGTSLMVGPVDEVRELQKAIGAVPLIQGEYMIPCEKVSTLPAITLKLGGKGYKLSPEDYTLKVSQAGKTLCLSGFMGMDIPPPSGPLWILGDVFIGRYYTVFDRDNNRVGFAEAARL
cathepsin D (from human liver), sequence (P07339 65-162): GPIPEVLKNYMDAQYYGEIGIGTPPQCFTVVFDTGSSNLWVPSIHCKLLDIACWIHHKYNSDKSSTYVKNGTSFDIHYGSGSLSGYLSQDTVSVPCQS

Structure (SMILES)	IC50 [1] [nM]	IC50 [2] [nM]	IC50 [3] [nM]	IC50 [4] [nM]
C[C@@]1(c2cc(Nc3cccc4cc(OC(F)F)cnc34)ccc2F)COCC(N)=N1 [Example 29, [3-((R)-5-Amino-3-methyl-3,6-dihydro-2H-[1,4]oxazin-3-yl)-4-fluoro-phenyl]-(3-difluoromethoxy-quinolin-8-yl)-amine]	21100	2300	270	17600
CC1(c2cccc(Nc3cc(F)cc4cc(Cl)cnc34)c2)COCC(N)=N1 (stereo not shown) [Example 36, [3-(5-Amino-3-methyl-3,6-dihydro-2H-[1,4]oxazin-3-yl)-phenyl]-(3-chloro-6-fluoro-quinolin-8-yl)-amine]	2600	–	250	5000
